Reference: patent US20260109707A1, “HETEROBIFUNCTIONAL COMPOUNDS AND METHODS OF TREATING DISEASE” (Halda Therapeutics OpCo. Inc., priority 2022, published 2026)

Assays:
[1] = tested on: T-Rex 293 cell line SC3 cells having increased expression of androgen receptor protein due to exposure to doxycycline; assay: Cellular growth inhibition assay, T-Rex 293 SC3 cells with doxycycline (CellTiter-Glo, 72 hours); assay type: cell-based; conditions: T-Rex 293 SC3 cells with increased androgen receptor expression due to doxycycline (10 ng/mL)
Procedure: (§1) The following types of cells were prepared for this experiment: (i) a T-Rex 293 cell line having increased expression of androgen receptor protein due to exposure to doxycycline and (ii) a T-Rex 293 cell line lacking increased expression of androgen receptor protein. Ability of the test compounds to inhibit proliferation of the foregoing cell types was evaluated according to the procedures set forth below.
(§2) The doxycycline-inducible androgen receptor protein expressing cell line was established using the following protocol: T-Rex 293 cells were purchased from Invitrogen (Cat #R71007) and transfected using Lipofectamine 2000 with the wild-type androgen receptor protein sequence cloned into the pcDNA4/TO vector. Transfected cells were selected using 400 μg/mL Zeocin (Invitrogen Cat #R25001). Following selection, single clones were raised and maintained in Dulbecco's Modified Eagle Medium (DMEM) supplemented with 10% w/w Tetracycline-free fetal bovine serum (FBS) and 250 μg/mL Zeocin. Clones were analyzed for expression of androgen receptor protein in the presence and absence of 10 ng/mL doxycycline (Sigma Cat #D9891), and a single doxycycline-inducible clone (hereinafter “SC3”) was selected for use in downstream assays.
(§3) The SC3 cells were seeded on poly-D-lysine coated, black clear-bottom 384-well plates at 2500/well, in 25 μL Phenol Red Free Dulbecco's Modified Eagle Medium (DMEM) supplemented with 10% w/w charcoal-dextran treated fetal bovine serum (FBS) and 1% w/w pen-strep, with or without 10 ng/mL doxycycline. Pen-Strep is a commercially available mixture of penicillin G and streptomycin, which is used in mammalian cell culture media to prevent bacterial contamination. Phenol Red Free Dulbecco's Modified Eagle Medium (DMEM) supplemented with 10% w/w charcoal-dextran treated fetal bovine serum (FBS) and 1% w/w pen-strep, with or without 10 ng/mL doxycycline is herein referred to as Treatment Medium. Following seeding of cells in the plates, the plates were spun at 300×g for 30 seconds, then equilibrated to room temperature for 30 minutes, and then deposited in a humidified tissue culture incubator maintained at 37° C. with 5% CO2.
(§4) At 24 hours after seeding of the cells, dilutions of test compound were prepared in DMSO and dissolved in Treatment Medium, to achieve a final DMSO concentration of 0.5% w/w, thereby providing the Test Compound Solution. A 25 μL aliquot of the Test Compound Solution was added to cells in the well plates. An equal volume of a solution containing DMSO and Treatment Medium was used as a negative control. Following treatment of cells with Test Compound Solution or said equal volume of a solution containing DMSO and Treatment Medium, the plates were spun at 300×g for 30 seconds, and then left in an incubator for 72 hours.
(§5) At the end of the treatment duration, cell viability was quantified with CellTiter-Glo 2.0 reagent (Promega Cat #G9243). For this purpose, plates were equilibrated to room temperature for 30 minutes, and then 25 μL of CellTiter-Glo 2.0 reagent was added to cells in the plate wells. Plates were then agitated on a shaker for two minutes at 500 rpm and subsequently incubated at room temperature for 10 minutes. Following incubation, the plates were spun at 3000×g for 30 seconds, then sealed with an optical adhesive cover, and luminescence readings were measured with an EnVision Plate Reader.
(§6) Data was normalized using zero luminescence for baseline. A four-parameter non-linear regression curve fit was applied to dose-response data in GraphPad Prism data analysis software to determine the half-maximal growth inhibitory concentration (GI50) for each test compound.

[2] = tested on: T-Rex 293 cell line SC3 cells lacking increased expression of androgen receptor protein; assay: Cellular growth inhibition assay, T-Rex 293 SC3 cells without doxycycline (CellTiter-Glo, 72 hours); assay type: cell-based; conditions: T-Rex 293 cell line SC3 cells not exposed to doxycycline (lacking increased androgen receptor expression)
Procedure: as §1, §2, §3, §4, §5, §6

Compound | GI50 [1] | GI50 [2] | GI50 ([1]; 72 h) | GI50 ([2]; 72 h)
Cc1sc2c(c1C)C(c1ccc(N3CCCC(CNc4ncc(C(=O)NC5CCC(Oc6ccc(C#N)c(Cl)c6)CC5)cn4)C3)cc1)=NC(Cc1ncco1)c1nnc(C)n1-2 (mixture of isomers) [I-810] | < 500 nM | 500 to 1500 nM |  | 
Cc1sc2c(c1C)C(c1ccc(NCC3CN(c4ncc(C(=O)NC5CCC(Oc6ccc(C#N)c(Cl)c6)CC5)cn4)CCO3)cc1)=NC(Cc1ncco1)c1nnc(C)n1-2 (mixture of isomers) [I-814] | < 500 nM | < 500 nM |  | 
Cc1sc2c(c1C)C(c1ccc(N3CC4CC3CN4c3ncc(C(=O)NC4CCC(Oc5ccc(C#N)c(Cl)c5)CC4)cn3)cc1)=NC(Cc1ncco1)c1nnc(C)n1-2 (mixture of isomers) [I-815] | < 500 nM | < 500 nM |  | 
Cc1sc2c(c1C)C(c1ccc(N3CCC4(CC3)CCN(c3ncc(C(=O)N[C@H]5CC[C@H](Oc6ccc(C#N)c(Cl)c6)CC5)cn3)C4)cc1)=NC(Cc1ncco1)c1nnc(C)n1-2 (mixture of isomers) [I-779] | < 500 nM | < 500 nM |  | 
Cc1sc2c(c1C)C(c1ccc(N3CCN(C4CCN(c5ncc(C(=O)N[C@H]6CC[C@H](Oc7ccc(C#N)c(Cl)c7)CC6)cn5)C4)CC3)cc1)=NC(Cc1ncco1)c1nnc(C)n1-2 (mixture of isomers) [I-783] | < 500 nM | < 500 nM |  | 
Cc1sc2c(c1C)C(c1ccc(C#CC3CC4(CCCN(c5ccc(C(=O)N[C@H]6CC[C@H](Oc7ccc(C#N)c(Cl)c7)CC6)nn5)C4)C3)cc1)=NC1(CC1)c1nnc(C)n1-2 (stereo partly drawn) [I-472] |  | > 3000 nM | < 500 nM | 
Cc1sc2c(c1C)C(c1ccc(N3CCC4(CCN(c5ccc(C(=O)N[C@H]6CC[C@H](Oc7ccc(C#N)c(Cl)c7)CC6)nn5)C4)C3)cc1)=N[C@@H](C)c1nnc(C)n1-2 (stereo partly drawn) [I-535] |  |  | < 500 nM | 
COC[C@@H]1N=C(c2ccc(C3CCC4(CC3)CCN(c3ccc(C(=O)N[C@H]5CC[C@H](Oc6ccc(C#N)c(Cl)c6)CC5)nn3)C4)cc2)c2c(sc(C)c2C)-n2c(C)nnc21 (stereo partly drawn) [I-602] |  |  |  | < 500 nM
Cc1sc2c(c1C)C(c1ccc(CC3CC(OC4CCN(c5ccc(C(=O)NC6CCC(Oc7ccc(C#N)c(Cl)c7)CC6)nn5)CC4)C3)cc1)=NC(C)c1nnc(C)n1-2 (stereo not drawn) [I-603] |  |  | < 500 nM | < 500 nM
COC[C@@H]1N=C(c2ccc(OC3CC4(CCCN(c5ccc(C(=O)N[C@H]6CC[C@H](Oc7ccc(C#N)c(Cl)c7)CC6)nn5)C4)C3)cc2)c2c(sc(C)c2C)-n2c(C)nnc21 (stereo partly drawn) [I-661] |  |  | < 500 nM | 
Cc1sc2c(c1C)C(c1ccc(N3C[C@@H]4CN(c5ccc(C(=O)N[C@H]6CC[C@H](Oc7ccc(C#N)c(Cl)c7)CC6)nn5)C[C@H]4C3)cc1)=N[C@@H](C)c1nnc(C)n1-2 [I-705] |  |  |  | < 500 nM
Cc1sc2c(c1C)C(c1ccc(N[C@H]3CCN(c4ncc(C(=O)N[C@H]5CC[C@H](Oc6ccc(C#N)c(Cl)c6)CC5)cn4)C3)cc1)=NC(Cc1ncco1)c1nnc(C)n1-2 (stereo partly drawn) [I-773] |  |  | 500 to 1500 nM | 500 to 1500 nM
Cc1sc2c(c1C)C(c1ccc(NCCN3CCN(c4ncc(C(=O)N[C@H]5CC[C@H](Oc6ccc(C#N)c(Cl)c6)CC5)cn4)CC3)cc1)=NC(Cc1ncco1)c1nnc(C)n1-2 (stereo partly drawn) [I-774] |  |  | < 500 nM | < 500 nM
Cc1sc2c(c1C)C(c1ccc(N[C@H]3CC[C@@H](Nc4ncc(C(=O)N[C@H]5CC[C@H](Oc6ccc(C#N)c(Cl)c6)CC5)cn4)CC3)cc1)=NC(Cc1ncco1)c1nnc(C)n1-2 (stereo partly drawn) [I-775] |  |  | < 500 nM | > 3000 nM
Cc1sc2c(c1C)C(c1ccc(N3CC[C@H](Nc4ncc(C(=O)N[C@H]5CC[C@H](Oc6ccc(C#N)c(Cl)c6)CC5)cn4)C3)cc1)=NC(Cc1ncco1)c1nnc(C)n1-2 (stereo partly drawn) [I-776] |  |  | < 500 nM | < 500 nM
Cc1sc2c(c1C)C(c1ccc(N3CC4(CCN(c5ncc(C(=O)N[C@H]6CC[C@H](Oc7ccc(C#N)c(Cl)c7)CC6)cn5)CC4)C3)cc1)=NC(Cc1ncco1)c1nnc(C)n1-2 (stereo partly drawn) [I-777] |  |  | < 500 nM | < 500 nM
Cc1sc2c(c1C)C(c1ccc(N3CCC(C)(Nc4ncc(C(=O)N[C@H]5CC[C@H](Oc6ccc(C#N)c(Cl)c6)CC5)cn4)CC3)cc1)=NC(Cc1ncco1)c1nnc(C)n1-2 (stereo partly drawn) [I-778] |  |  | < 500 nM | < 500 nM
Cc1sc2c(c1C)C(c1ccc(N3CC(N4CCN(c5ncc(C(=O)N[C@H]6CC[C@H](Oc7ccc(C#N)c(Cl)c7)CC6)cn5)CC4)C3)cc1)=NC(Cc1ncco1)c1nnc(C)n1-2 (stereo partly drawn) [I-780] |  |  | < 500 nM | < 500 nM
Cc1sc2c(c1C)C(c1ccc(N[C@H]3CCN(c4ncc(C(=O)N[C@H]5CC[C@H](Oc6ccc(C#N)c(Cl)c6)CC5)cn4)C[C@@H]3F)cc1)=NC(Cc1ncco1)c1nnc(C)n1-2 (stereo partly drawn) [I-781] |  |  | < 500 nM | < 500 nM
Cc1sc2c(c1C)C(c1ccc(N3[C@@H]4CC[C@H]3C[C@@H](Nc3ncc(C(=O)N[C@H]5CC[C@H](Oc6ccc(C#N)c(Cl)c6)CC5)cn3)C4)cc1)=NC(Cc1ncco1)c1nnc(C)n1-2 (stereo partly drawn) [I-782] | < 500 nM | > 3000 nM |  | 
Cc1sc2c(c1C)C(c1ccc(NCC3CCCN(c4ncc(C(=O)N[C@H]5CC[C@H](Oc6ccc(C#N)c(Cl)c6)CC5)cn4)C3)cc1)=NC(Cc1ncco1)c1nnc(C)n1-2 (stereo partly drawn) [I-809] |  |  | < 500 nM | > 3000 nM
Cc1sc2c(c1C)C(c1ccc(NCCC3CCN(c4ncc(C(=O)N[C@H]5CC[C@H](Oc6ccc(C#N)c(Cl)c6)CC5)cn4)CC3)cc1)=NC(Cc1ncco1)c1nnc(C)n1-2 (stereo partly drawn) [I-811] |  |  | < 500 nM | < 500 nM
Cc1sc2c(c1C)C(c1ccc(N3CCCC4(CCN(c5ncc(C(=O)N[C@H]6CC[C@H](Oc7ccc(C#N)c(Cl)c7)CC6)cn5)CC4)C3)cc1)=NC(Cc1ncco1)c1nnc(C)n1-2 (stereo partly drawn) [I-812] |  |  | < 500 nM | > 3000 nM
Cc1sc2c(c1C)C(c1ccc(N3C[C@H](F)C[C@@H](Nc4ncc(C(=O)N[C@H]5CC[C@H](Oc6ccc(C#N)c(Cl)c6)CC5)cn4)C3)cc1)=NC(Cc1ncco1)c1nnc(C)n1-2 (stereo partly drawn) [I-813] |  |  | < 500 nM | < 500 nM
Cc1sc2c(c1C)C(c1ccc(N3CCCN(CCCNc4ncc(C(=O)N[C@H]5CC[C@H](Oc6ccc(C#N)c(Cl)c6)CC5)cn4)CC3)cc1)=NC(Cc1ncco1)c1nnc(C)n1-2 (stereo partly drawn) [I-816] |  |  | < 500 nM | > 3000 nM
Cc1sc2c(c1C)C(c1ccc(N3CCC(C)(CNc4ncc(C(=O)N[C@H]5CC[C@H](Oc6ccc(C#N)c(Cl)c6)CC5)cn4)CC3)cc1)=NC(Cc1ncco1)c1nnc(C)n1-2 (stereo partly drawn) [I-817] |  |  | < 500 nM | < 500 nM
Cc1sc2c(c1C)C(c1ccc(N3CCC4(CC3)CC(Nc3ncc(C(=O)N[C@H]5CC[C@H](Oc6ccc(C#N)c(Cl)c6)CC5)cn3)C4)cc1)=NC(Cc1ncco1)c1nnc(C)n1-2 (stereo partly drawn) [I-818] |  |  | < 500 nM | < 500 nM
Cc1sc2c(c1C)C(c1ccc(N3CCO[C@@H](CNc4ncc(C(=O)N[C@H]5CC[C@H](Oc6ccc(C#N)c(Cl)c6)CC5)cn4)C3)cc1)=NC(Cc1ncco1)c1nnc(C)n1-2 (stereo partly drawn) [I-819] |  |  | < 500 nM | < 500 nM
Cc1sc2c(c1C)C(c1ccc(N3CCN(c4ncc(C(=O)N[C@H]5CC[C@H](Oc6ccc(C#N)c(Cl)c6)CC5)cn4)CC(F)(F)C3)cc1)=NC(Cc1ncco1)c1nnc(C)n1-2 (stereo partly drawn) [I-820] |  |  | < 500 nM | < 500 nM
